Laboratory results as given in the supplement of paper PMC10307832.

compound: Cc1ccc(C(=O)Nc2ccc(CN3CCN(C)CC3)c(C(F)(F)F)c2)cc1C#Cc1cnc2cccnn12 [Ponatinib] + Nc1ncn([C@H]2C[C@H](O)[C@@H](CO)O2)c(=O)n1 [Decitabine] (partner 2 µM); test: relative viability (nuclei count vs DMSO), 5 days (fraction); higher = more cells survive; details: first compound 0.002 µM
Procedure, shortened: (§1)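 Medians of duplicate plates are given as relative viability. That measure is the nuclei count in treated wells divided by the count in vehicle wells. Counts were taken on 4× images of lung cancer cell lines in 1536-well plates, 5 days after pin-tool dosing the day after seeding with one drug alone or a fixed anchor-drug dose plus five library-drug doses (not always all listed) in √10 steps.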

Cell Line | relative viability
NCI-H2342 | 0.74
NCI-H838 | 0.417
NCI-H1650 | 0.328
NCI-H1993 | 0.549
NCI-H2347 | 0.663
PC-14 | 0.214
LCLC-103H | 0.713
NCI-H596 | 0.925
NCI-H2126 | 0.587
EMC-BAC-2 | 0.927
NCI-H2085 | 0.541
HCC-366 | 0.336
NCI-H1666 | 0.752
NCI-H647 | 0.319
LK-2 | 0.301
NCI-H2087 | 0.186
NCI-H1648 | 0.464
NCI-H1395 | 0.816
H3255 | 0.566

Cell Line | relative viability
COR-L23 | 0.391
COR-L 105 | 0.671
LOU-NH91 | 0.778
ChaGo-K-1 | 0.517
NCI-H358 | 0.193
NCI-H3122 | 0.457
HOP-62 | 0.213
HCC-44 | 0.936
A549 | 0.238
NCI-H522 | 0.615
LU99A | 0.803
BEN | 0.723
SW 900 | 0.447
NCI-H1793 | 0.451
NCI-H1944 | 0.422
NCI-H2170 | 0.508
ABC-1 | 1
SK-MES-1 | 0.392

same assay, conditions: first compound 0.006325 µM

Cell Line | relative viability
NCI-H2342 | 0.703
NCI-H838 | 0.475
NCI-H1650 | 0.653
NCI-H1993 | 0.583
NCI-H2347 | 0.571
PC-14 | 0.222
LCLC-103H | 0.693
NCI-H596 | 0.999
NCI-H2126 | 0.585
EMC-BAC-2 | 0.899
NCI-H2085 | 0.58
HCC-366 | 0.317
NCI-H1666 | 0.745
NCI-H647 | 0.369
LK-2 | 0.312
NCI-H2087 | 0.294
NCI-H1648 | 0.615
NCI-H1395 | 0.714
H3255 | 0.512

Cell Line | relative viability
COR-L23 | 0.427
COR-L 105 | 0.674
LOU-NH91 | 0.788
ChaGo-K-1 | 0.507
NCI-H358 | 0.326
NCI-H3122 | 0.545
HOP-62 | 0.168
HCC-44 | 0.976
A549 | 0.294
NCI-H522 | 0.64
LU99A | 0.968
BEN | 0.687
SW 900 | 0.43
NCI-H1793 | 0.526
NCI-H1944 | 0.433
NCI-H2170 | 0.481
ABC-1 | 1.03
SK-MES-1 | 0.334

same assay, conditions: first compound 0.06325 µM

Cell Line | relative viability
NCI-H2342 | 0.837
NCI-H838 | 0.458
NCI-H1650 | 0.449
NCI-H1993 | 0.671
NCI-H2347 | 0.614
PC-14 | 0.232
LCLC-103H | 0.759
NCI-H596 | 0.984
NCI-H2126 | 0.667
EMC-BAC-2 | 1.04
NCI-H2085 | 0.613
HCC-366 | 0.387
NCI-H1666 | 0.812
NCI-H647 | 0.429
LK-2 | 0.273
NCI-H2087 | 0.338
NCI-H1648 | 0.429
NCI-H1395 | 0.682
H3255 | 0.717

Cell Line | relative viability
COR-L23 | 0.504
COR-L 105 | 0.821
LOU-NH91 | 0.868
ChaGo-K-1 | 0.54
NCI-H358 | 0.221
NCI-H3122 | 0.472
HOP-62 | 0.21
HCC-44 | 0.898
A549 | 0.324
NCI-H522 | 0.615
LU99A | 0.992
BEN | 0.699
SW 900 | 0.518
NCI-H1793 | 0.561
NCI-H1944 | 0.482
NCI-H2170 | 0.467
ABC-1 | 1.16
SK-MES-1 | 0.419

same assay, conditions: first compound 0.2 µM

Cell Line | relative viability
NCI-H2342 | 0.77
NCI-H838 | 0.487
NCI-H1650 | 0.324
NCI-H1993 | 0.61
NCI-H2347 | 0.605
PC-14 | 0.214
LCLC-103H | 0.722
NCI-H596 | 1
NCI-H2126 | 0.545
EMC-BAC-2 | 0.842
NCI-H2085 | 0.565
HCC-366 | 0.37
NCI-H1666 | 0.766
NCI-H647 | 0.407
LK-2 | 0.274
NCI-H2087 | 0.264
NCI-H1648 | 0.358
NCI-H1395 | 0.615
H3255 | 0.552

Cell Line | relative viability
COR-L23 | 0.424
COR-L 105 | 0.61
LOU-NH91 | 0.766
ChaGo-K-1 | 0.512
NCI-H358 | 0.204
NCI-H3122 | 0.411
HOP-62 | 0.183
HCC-44 | 0.884
A549 | 0.295
NCI-H522 | 0.609
LU99A | 0.789
BEN | 0.656
SW 900 | 0.481
NCI-H1793 | 0.499
NCI-H1944 | 0.43
NCI-H2170 | 0.431
ABC-1 | 0.91
SK-MES-1 | 0.372

compound: Cc1ccc(Nc2nccc(N(C)c3ccc4c(C)n(C)nc4c3)n2)cc1S(N)(=O)=O [Pazopanib] + C[C@@H](Oc1cc(-c2cnn(C3CCNCC3)c2)cnc1N)c1c(Cl)ccc(F)c1Cl [Crizotinib] (partner 1 µM); test: as above; details: first compound 0.01 µM
Procedure, shortened: as §1

Cell Line | relative viability
NCI-H838 | 0.821
NCI-H1650 | 1.09
EBC-1 | 0.224
NCI-H1703 | 0.587
NCI-H1993 | 0.871
NCI-H2347 | 0.885
PC-14 | 0.95
